We go through four compounds from patent publication US20130324522A1, “INSECT ODORANT RECEPTOR ANTAGONISTS” (THE ROCKEFELLER UNIVERSITY, priority 2010, published 2013).

Assay [1] concerns Drosophila melanogaster. Briefly: Fly two-choice behavior assay. Format: in vivo. How it is done:
Male flies (Drosophila melanogaster) of the w^1118 genotype were “wet-starved” for 24 hours in plastic culture vials lacking food but supplemented with wet cotton plugs on the bottom. After the 24 hour fasting period before the assay, flies were placed into a two-choice behavior chamber. This two-choice chamber consists of one 15 cm Petri dish with two round holes (2.2 cm diameter) that were punched along the midline at an equal distance (2.9 cm) from the rim. Two small plastic vials were connected to the dish and plugged with rigid cotton plugs perforated with 1 mL pipette tips. The bottom of each trap vial was humidified with the same cotton plugs used to plug the vial by soaking the plug in deionized water for a few seconds until it was fully wetted. Each trap contained a small filter paper strip with 10 μL of either water or pure odor (3-methyl-thio-1-propanol). Flies could enter one of the two traps through a plastic pipette tip (1 mL) inserted into top of each vial. 10 μL of RU-14, or solvent (100% ethanol) or DEET was placed on small circular filter paper, and introduced into the pipette tips at the entrance. […] After 24 hours, flies were counted and a response was computed by calculating the percent of flies in each trap. Significance was assessed using the Mann-Whitney U-test. […]

Assay [2] relates to Aedes aegypti. As to the kind of experiment: Mosquito two-port olfactometer behavioral assay. Type of assay: in vivo. Particulars: 3.5 mg dose; female mosquitoes, human hand odor and CO2, two-port olfactometer. How it is done: Female Aedes aegypti Orlando mosquitoes (8-11 days old) were used in this assay. Larvae were hatched from dried egg papers and were reared in pans with deionized water supplemented with two tablets of fish food “TetraMin®” from Tetra every day. Pupae were transferred to cages and maintained before and after eclosion at 25° C. and 70-80% humidity with a 12 hr light: 12 hr dark photocycle. Adults were fed a 10% corn syrup solution and were free to mate with each other. One day prior to the assay, females were separated and placed into starvation cartridges (each containing 20 mosquitoes) without any food or water. The cartridges were placed at 25° C. and 70-80% humidity overnight (>l4hr).
A two-port olfactometer, adapted from Gouck (Gouck, H. K. Host preferences of various strains of Aedes aegypti and Aedes simpsoni as determined by an olfactometer. Bull. World Health Org. 47:680-683, 1972) was used to assess the repellent characteristic of small compounds by measuring mosquito host-seeking preference to human odor with a compound or its solvent. […] After 8 minutes, the number of mosquitoes in the trapping chambers (“attracted”) and main compartment (“not-attracted”) was counted. Data were expressed as % attracted/% activated. Significance was assessed using the analysis of variance, ANOVA. […] Significance was assessed using the Mann-Whitney U-test. […]

Each structure is given as a SMILES string.

Turning to `Fc1cccc(Cl)c1Cn1ccnc1CN(CC1CCCC1)C1CC1` [RU-I4], the “suppression of 3MTP attraction” value in assay [1] (3.5 mg dose) is on record as “significant suppression”. As for `CN(Cc1nccn1Cc1c(F)cccc1Cl)C(=O)C1CCCC1` [RU-I5], the “inhibition of host-seeking behavior” value in assay [2] was “significant inhibition”. As to `CCN(CC)C(=O)c1cccc(C)c1` [DEET, N,N-diethyl-m-toluamide, reference compound], the “suppression of 3MTP attraction” value in assay [1] (range of 1 mg to 10 mg) was “significant suppression”. Consider `O=C(C1CCCC1)N(Cc1nccn1CCc1c(F)cccc1Cl)C1CC1` [RU-I2], for which, in assay [2], the “inhibition of host-seeking behavior” value is recorded as “significant inhibition”.
